Tested on: rat model of MRMT-1 induced bone cancer pain
Details: in vivo

CN1CC[C@]23c4c5ccc(O)c4O[C@H]2[C@@H](O)C=C[C@H]3[C@H]1C5 [Morphine]
paw withdrawal threshold (allodynia induced by bone cancer): reversal of deficit in paw withdrawal threshold

From patent US11975055B2 (priority 2018, dated 2024)
